Paper PMC8575619, “Cytotoxic and Antifungal Amides Derived from Ferulic Acid: Molecular Docking and Mechanism of Action” (BioMed Research International, 2021)
≈ marks a conversion by molar mass, not a printed value. Where “and” joins values, the source holds several entries; their conditions need not be identical. Equal entries are not always repeated. Where two headings read alike, the source gives them in different places.

Tests used:
C. albicans CBS 562 = experiment: Sorbitol assay (cell wall mechanism), microdilution; format: cell-based, Candida albicans; conditions: for MIC: Candida albicans
Method: (1) Sorbitol Assay. The microdilution technique was performed in the presence of sorbitol (D-sorbitol, anhydrous) (INLAB laboratory), to determine the mode of action of the compounds on the cell wall of C. albicans CBS 562. For this test, the inoculum was prepared with sorbitol to a final concentration of 0.8 M. The plates were incubated at 35 ± 2°C, and readings were taken 24 h and 48 h after incubation. Caspofungin was used as positive control at an initial concentration of 5 mg/mL [68–70].

HepG2 cells = experiment: Cytotoxicity assay, alamar blue test; format: cell-based, human; conditions: value (95% confidence interval)
Method: (§1) HepG2 cells (human hepatocellular carcinoma), HCT116 (human colon carcinoma), HL-60 (human promyelocytic leukemia), and MRC5 (human lung fibroblast) obtained from the ATCC (Manassas, VA, USA) were used. Cells were cultured in cell culture bottles (75 cm 3, 250 mL volume), and media used were RPMI 1640 and supplemented with 10% fetal bovine serum. Cells were maintained in incubators with 5% CO2 atmosphere at 37°C. Cellular growth was monitored daily with the use of an inversion microscope. The medium was changed whenever cell growth reached the necessary confluence for nutrient renewal. For the maintenance of adhered cells, trypsin (0.25%) was used for the cells to detach from the walls of the bottles.
(§2) To assess the cytotoxicity of the substances, the alamar blue test was performed after 72 h of exposure with the test substances. Alamar blue, known as resazurin [62], is a fluorescent/colorimetric indicator with redox properties. The reduction in alamar blue reflects cell proliferation. This was initially used to indicate cell growth and/or viability in monitoring lymphocyte proliferation and currently has several applications. Initially, cells were plated in 96-well plates (100 μL/well of a solution of 0.3 × 10^6 cells/mL for cells in suspension and 0.7 × 10^5 cells/mL for adhered cells). After 24 h of incubation, the test substances dissolved in DMSO were added to each well and incubated for 72 h. Doxorubicin was used as a positive control. The negative control received the same amount of DMSO. Four hours before the end of the incubation period, 20 μL of the stock solution (0.312 mg/mL) of alamar blue (resazurin) was added to each well. Absorbances were measured at wavelengths of 570 nm (reduced) and 600 nm (oxidized) using a plate reader.

HL-60 = experiment: Cytotoxicity assay, alamar blue test; format: cell-based, human; conditions: value (95% confidence interval); for IC50: read-out: IC50 HL60
Method: as §1, §2

HCT116 = experiment: Cytotoxicity assay, alamar blue test; format: cell-based, human; conditions: value (95% confidence interval)
Method: as §1, §2

MRC5 = experiment: Cytotoxicity assay, alamar blue test (healthy cell line); format: cell-based, human; conditions: value (95% confidence interval)
Method: as §1, §2

[1] = test system: Candida strains (Candida albicans, C. tropicalis, and C. krusei); experiment: Antifungal evaluation (MIC/MFC), statements for all Candida strains; format: cell-based, Candida spp.
Method: The antifungal activity (Table 2) of the ten amides was assessed via the minimum inhibitory concentration (MIC) which was determined using the microdilution methods against three species of Candida strains (Candida albicans, C. tropicalis, and C. krusei).
(§3) Antifungal activity evaluations were performed using references strains of Candida spp., obtained from the Centraalbureau voor Schimmelcultures (CBS, Ultrecht, Netherlands): Candida albicans CBS 562, Candida tropicalis CBS 94, and Candida krusei CBS 573. Nystatin, Tween 80%, DMSO, caspofungin diacetate, and ergosterol were obtained from Sigma-Aldrich® (St. Louis, MO, EUA) and sorbitol (D-sorbitol anhydrous) from INLAB® (São Paulo, Brazil). All assays were performed in triplicate in three independent experiments. The culture medium used for maintenance of the microorganisms was Agar Sabouraud Dextrose (ASD). Inoculants were adjusted to a final concentration of 2.5 × 10^3 CFU/mL (Clinical and Laboratory Standards Institute, 2002). […]
(§4) MIC was determined by the microdilution technique, as previously described by the adapted Clinical and Laboratory Standards Institute (CLSI, 2002) method. The compounds were subjected to the microdilution technique in 96-well plates, with U bottom. The samples were dissolved with DMSO and sterile distilled water (up to 1.0 mL). Through serial dilutions, concentrations of the evaluated compounds ranging from 1000 μg/mL to 7.8 μg/mL. The culture sterility medium, the evaluated substances, and the microbial growth were carried out in parallel. The plates were closed and subjected to a temperature of 35 ± 2°C for 24 h. 1% TTC (2,3,5-triphenyl tetrazolium chloride, Sigma-Aldrich®, St. Louis, MO, EUA) was added to each well to confirm the presence of viable microorganisms. MIC was defined as the lowest concentration of the test substance that inhibits visible microbial growth.
(§5) The minimum fungicide concentration (MFC) of the compounds was obtained after the interpretation of the MIC. Three (3) aliquots of 30 μL of supernatant were removed from the wells (where complete inhibition of fungal growth was analyzed) and placed in Petri dishes containing 15 mL of agar Sabouraud dextrose. The plates were incubated at 35 ± 2°C for 24 h for visual counting of colony forming units.

C. albicans = experiment: Ergosterol test (plasma membrane mechanism), microdilution; format: cell-based, Candida albicans; conditions: for MIC Without ergosterol: absence of ergosterol
Method: (2) Ergosterol Test. The test of the compounds was performed using the microdilution technique, as previously described, in the presence of exogenous ergosterol at 400 μg/mL. Nystatin was used as positive control. The plates were incubated at 35 ± 2°C, and readings were taken at 24 and 48 h.

Candida albicans CBS 562 [2] = experiment: Minimum fungicide concentration (MFC); format: cell-based; conditions: ≥ 4 fungistatic or <4 fungicide
Method: as §3
as §5, with “units. To determine whether the compounds had fungistatic (MFC/MIC ≥ 4) or fungicidal (MFC/MIC < 4) activity, the MFC/MIC ratio was calculated.” for “units.”

[3] = test system: Candida tropicalis CBS 94; experiment: Minimum fungicide concentration (MFC); format: cell-based; conditions: ≥ 4 fungistatic or <4 fungicide
Method: as §3
as §5, with “units. To determine whether the compounds had fungistatic (MFC/MIC ≥ 4) or fungicidal (MFC/MIC < 4) activity, the MFC/MIC ratio was calculated.” for “units.”

Candida krusei CBS 573 = experiment: Minimum fungicide concentration (MFC); format: cell-based; conditions: ≥ 4 fungistatic or <4 fungicide
Method: as §3
as §5, with “units. To determine whether the compounds had fungistatic (MFC/MIC ≥ 4) or fungicidal (MFC/MIC < 4) activity, the MFC/MIC ratio was calculated.” for “units.”

Candida albicans CBS 562 [4] = experiment: MIC by broth microdilution; format: cell-based; conditions: 24 h, N.A.: no activity
Method: as §3, §4

Molecule	MIC/MFC reason C. albicans CBS 562 (Candida albicans CBS 562 [2])	MIC/MFC reason C. tropicalis CBS 94 [3]	MIC/MFC reason C. krusei CBS 573 (Candida krusei CBS 573)	IC50 (HepG2 cells; 72 h)	IC50 HEPG2 (HepG2 cells; 72 h)	IC50 (HL-60; 72 h)	IC50 (HCT116; 72 h)	IC50 HCT116 (HCT116; 72 h)	IC50 (MRC5; 72 h)	IC50 MRC5 (MRC5; 72 h)	IC50 HL60 (HL-60; 72 h)	other results
CC[C@H](C)C[C@H](C)CCCCCCCCC(=O)N[C@H]1C[C@@H](O)[C@@H](NCCN)NC(=O)[C@@H]2[C@@H](O)CCN2C(=O)[C@H]([C@H](O)CCN)NC(=O)[C@H]([C@H](O)[C@@H](O)c2ccc(O)cc2)NC(=O)[C@@H]2C[C@@H](O)CN2C(=O)[C@H]([C@@H](C)O)NC1=O [Caspofungin, reference compound]												MIC (C. albicans CBS 562; CBS562, read-out: MIC With sorbitol): 1 µg/mL (≈ 0.915 µM); MIC (C. albicans CBS 562; CBS562, read-out: MIC Without sorbitol): 0.015 µg/mL (≈ 0.0137 µM)
COc1cc(/C=C/C(=O)NCC(C)C)ccc1O [Compound 2, (E)-3-(4-hydroxy-3-methoxyphenyl)-N-isobutylacrylamide]												IC50 (HepG2 cells; Homo sapiens, HepG2, 72 h): > 25 µg/mL and > 100 µM; IC50 (HL-60; Homo sapiens, HL-60, 72 h): > 25 µg/mL and > 100 µM; IC50 (HCT116; Homo sapiens, HCT-116, 72 h): > 25 µg/mL and > 100 µM; melting point: 75 to 81 °C; IC50 (MRC5; Homo sapiens, MRC5, 72 h): > 25 µg/mL and > 100 µM
COc1ccc(/C=C/C(=O)N2CCCC2)cc1O [Compound 3, (E)-3-(3-hydroxy-4-methoxyphenyl)-1-(pyrrolidin-1-yl)prop-2-en-1-one]												IC50 (HepG2 cells; Homo sapiens, HepG2, 72 h): > 25 µg/mL and > 95.7 µM; IC50 (HL-60; Homo sapiens, HL-60, 72 h): > 25 µg/mL and > 95.7 µM; IC50 (HCT116; Homo sapiens, HCT-116, 72 h): > 25 µg/mL and > 95.7 µM; melting point: 158 to 162 °C; IC50 (MRC5; Homo sapiens, MRC5, 72 h): > 25 µg/mL and > 95.7 µM
COc1cccc2c1C(=O)c1c(O)c3c(c(O)c1C2=O)C[C@@](O)(C(=O)CO)C[C@@H]3O[C@H]1C[C@H](N)[C@H](O)[C@H](C)O1 [DOX, Doxorubicin, reference compound]												IC50 (HepG2 cells; Homo sapiens, HepG2, 72 h): 0.01 µg/mL and 20 nM; IC50 (HL-60; Homo sapiens, HL-60, 72 h): 0.03 µg/mL and 60 nM; IC50 (HCT116; Homo sapiens, HCT-116, 72 h): 0.02 µg/mL and 40 nM; IC50 (MRC5; Homo sapiens, MRC5, 72 h): 1 µg/mL and 1.84 µM
C[C@@H]1[C@H](O)[C@@H](C)/C=C/C=C/CC/C=C/C=C/C=C/C=C/C(O[C@H]2O[C@H](C)[C@@H](O)[C@H](N)[C@@H]2O)CC2O[C@](O)(CC(O)C(O)CCC(O)CC(O)CC(O)CC(=O)O[C@H]1C)CC(O)C2C(=O)O (stereo partly drawn) [Nystatin, reference compound]	1	1	1									MFC ([1]; stated for all Candida strains): 4.3 µM (≈ 3.98 µg/mL); MIC ([1]; stated for all Candida strains): 4.3 µM (≈ 3.98 µg/mL); MIC Without ergosterol (C. albicans): 3.75 µg/mL (≈ 4.05 µM); MIC With ergosterol (C. albicans; exogenous ergosterol at 400 μg/mL): 31.25 µg/mL (≈ 33.7 µM)
(E)-3-(3-hydroxy-4-methoxyphenyl)-N-(4-methoxybenzyl)acrylamide [Compound 8]	1	1	1	64.7 µM	20.27 (15.94–25.77) μg/mL	70.3 µM	> 79.8 µM	>25 µg/mL	53.2 µM	16.69 (13.18–21.13) μg/mL		MIC ([1]; stated for all Candida strains): 1590 µM
(E)-3-(3-hydroxy-4-methoxyphenyl)-N-(4-methylbenzyl)acrylamide [Compound 7]		1	1	> 84.1 µM	>25 µg/mL	53.1 µM	> 84.1 µM	>25 µg/mL	> 84.1 µM	>25 µg/mL		MIC C. albicans CBS 562 (Candida albicans CBS 562 [4]): inactive
(E)-3-(3-hydroxy-4-methoxyphenyl)-N-phenylacrylamide [Compound 5]				> 88.2 µM	>25 µg/mL	50.4 µM	> 88.2 µM	>25 µg/mL	> 88.2 µM	>25 µg/mL	14.28 (9.40–21.70) μg/mL	
(E)-N-(3,4-dimethoxybenzyl)-3-(3-hydroxy-4-methoxyphenyl)acrylamide [Compound 10]	1	1	1	> 78.9 µM	>25 µg/mL	36.5 µM	> 78.9 µM	>25 µg/mL	> 78.9 µM	>25 µg/mL	12.51 (7.41–18.12) μg/mL	bioactivity category by MIC ([1]; Candida strains): good bioactivity (good bioactivity (MIC between 26 and 125 μg/mL)); MIC Without ergosterol (C. albicans): 62.25 µg/mL; MIC Without sorbitol (C. albicans CBS 562; C. albicans CBS 562, absence of sorbitol): 31.25 µg/mL; MIC With sorbitol (C. albicans CBS 562; C. albicans CBS 562, sorbitol 0.8 M): >1000 µg/mL
(E)-N-(4-chlorobenzyl)-3-(3-hydroxy-4-methoxyphenyl)acrylamide [Compound 9]		1	1	> 78.7 µM	>25 µg/mL	49 µM	> 78.7 µM	>25 µg/mL	> 78.7 µM	>25 µg/mL	15.58 (9.26–26.20) μg/mL	MIC C. albicans CBS 562 (Candida albicans CBS 562 [4]): inactivity
(E)-N-benzyl-3-(3-hydroxy-4-methoxyphenyl)acrylamide [Compound 6]	1		1	107 µM	20.82 (17.45–28.23) μg/mL	64.9 µM	70.3 µM	18.93 (13.48–26.57) μg/mL	76.5 µM	20.59 (16.22–26.13) μg/mL	17.49 (14.24–421.48) μg/mL	
(E)-N-cyclohexyl-3-(3-hydroxy-4-methoxyphenyl)acrylamide [Compound 4]				> 90.8 µM	>25 µg/mL	68.4 µM	> 90.8 µM	>25 µg/mL	> 90.8 µM	>25 µg/mL	18.84 (11.58–27.65) μg/mL	
